Measurements published in patent US20210386367A1, “DEVICES AND SYSTEMS FOR GASTROINTESTINAL MICROBIOME DETECTION AND MANIPULATION” (Progenity, Inc., priority 2018, published 2021).
Converted amounts (≈) assume the structure as drawn.

Columns and labels:
[1] = system: Streptococcus spp. spontaneous mutants; assay: organism not typed; format: cell-based
Experimental: (§1) Select isolates were subcultured onto agar containing drug at the selection concentration, were identified by MALDI, and were frozen for broth microdilution MIC testing as described below.
(§2) To determine whether colonies growing on drug selection plates had elevated MIC values to the selecting antibiotic, susceptibility testing by broth microdilution was conducted on isolated mutants following methodology recommended by CLSI (1), (2), and (3) “Performance Standards for Antimicrobial Susceptibility Testing; Twenty-Eighth Informational Supplement.,” CLSI document M100-S28, 2018.
(§3) All wells in columns 2 through 12 of a standard 96-well microdilution plate (Costar 3795) were filled with 150 μL of the appropriate diluent. Then, 300 μL of the test agents were added to the wells of column 1 of the plates at […] the highest final concentration to be tested. Serial two-fold dilutions were made across the rows through column 11 using the Biomek 2000. The wells of column 12 contained no drug and served as the growth control wells. This plate served as the “mother plate” from which selected MIC assay plates or “daughter plates” were made.
2 μL of drug solution from each well of a mother plate was added to each corresponding well of the daughter plate in a single step. A standardized inoculum of each aerobic test organism was prepared per CLSI methods to equal a 0.5 McFarland standard, followed by a dilution of 1:20 in MHB II. The plates were then inoculated with 10 μL of the diluted inoculum using the Biomek 2000 from low to high drug concentration, resulting in a final concentration of approximately 5×10^5 CFU/mL. An un-inoculated plate was incubated for the purpose of assessing solubility of the drug in the test media.
The plates for the aerobic tests were stacked 3-4 high, covered with a sterile lid on the top plate, and incubated aerobically at 35° C. for 18-20 hr. The MIC was recorded as the lowest concentration of drug that inhibited visible growth of the organism.

[2] = system: Bacteroides spp. spontaneous mutants; assay: Broth microdilution MIC of spontaneous mutants; format: cell-based
Experimental: as §1, §2, §3
Daughter plates for anaerobic organisms were transferred to a Bactron II anaerobic chamber (Sheldon Manufacturing Inc., Cornelius, Oreg.) to reduce for 1 hour prior to inoculation. The inoculum for each organism was prepared in the anaerobic chamber and dispensed into sterile disposable reservoirs. Inoculation was completed using a multichannel pipette to transfer 10 μL of the inoculum into each well of the daughter plate. This yielded a final cell concentration in the daughter plates of approximately 1×10^6 CFU/mL.

[3] = system: Streptococcus spp. spontaneous mutants; conditions: S. pneumoniae ATCC 49619; CLSI QC range shown in parentheses; cited from earlier work
[4] = system: Enterococcus faecalis clinical isolates; assay: MIC distribution against clinical isolates; format: cell-based; conditions: 50 E. faecalis isolates
From the text: (§4) As used herein, “minimum inhibitory concentration” or “MIC” refers to the lowest concentration of an antimicrobial agent, for example, an antimicrobial agent as described herein, required to inhibit the growth of an organism.
(§5) Many susceptibility testing methods are known in the art and can be used as described herein (see, e.g., Jorgensen and Ferraro (2009) Clinical Infectious Diseases 49:1749-1755; and Maurer et al. (2017) Infectious Disease Reports 9:6839; the entire contents of each of the foregoing are incorporated herein by reference). For example, antimicrobial susceptibility can be determined using conventional culture based methods such as the broth or agar dilution test. In these dilution tests, the bacterial isolate of interest is inoculated onto different media that include serial dilutions of an antimicrobial agent, and incubated under appropriate conditions (e.g., overnight at 37° C.) to allow for growth to occur. Following the incubation period, the media is examined to determine bacterial growth. The lowest concentration of antibiotic that prevents growth represents the minimal inhibitory concentration (MIC). Broth dilution tests can be miniaturized and mechanized allowing for reproducibility and high throughput.

[5] = system: Staphylococcus aureus clinical isolates; assay: MIC distribution against clinical isolates; format: cell-based; conditions: 50 S. aureus isolates
From the text: as §4, §5

[6] = system: Enterococcus faecalis; assay: Broth microdilution MIC, 50 clinical isolates; format: cell-based
Experimental: (§6) Minimal inhibitory concentration (MIC) values were determined by broth microdilution or agar dilution in accordance with guidelines from the Clinical and Laboratory Standards Institute (CLSI; (1) “Methods for Dilution Antimicrobial Susceptibility Tests for Bacteria That Grow Aerobically; Approved Standard; 11th ed.” CLSI standard M07-A11, 2018; (2) “Performance Standards for Antimicrobial Susceptibility Testing; Twenty-Eighth Informational Supplement,” CLSI document M100-S28, 2018; and (3) “Methods for Antimicrobial Susceptibility Testing of Anaerobic Bacteria; Approved Standard—Eighth Edition,” CLSI document M11-A8, 2012).
(§7) Tested aerobically by broth microdilution: • Escherichia coli, n=50 • Klebsiella spp., n=50 • Pseudomonas aeruginosa, n=50 • Streptococcus spp., n=50 • Staphylococcus aureus, n=50 • Enterococcus faecalis, n=50 • Enterobacter aerogenes, n=50 • Proteus mirabilis, n=50
(§8) Broth microdilution testing of aerobic bacteria was conducted in cation-adjusted Mueller Hinton broth (MHBII). For testing streptococci, lysed horse blood (LHB) was added to MHBII broth at a final concentration of 3%. Where LHB was used, it was added after filtering.
(§9) Broth microdilution susceptibility testing in 96-well microplates was conducted in accordance with CLSI methods (1) and (2). Automated liquid handlers were used to conduct serial dilutions and liquid transfers, including the Multidrop 384 (Labsystems, Helsinki, Finland), Biomek 2000, and the Biomek FX (Beckman Coulter, Fullerton, Calif.). All wells in columns 2 through 12 of a standard 96-well microdilution plate (Costar 3795) were filled with 150 μL of the appropriate diluent. Then, 300 μL of the test agents were added to the wells of column 1 of the plates at 100× the highest final concentration to be tested. Serial two-fold dilutions were made across the rows through column 11 using the Biomek 2000. The wells of column 12 contained no drug and served as the growth control wells. This plate served as the “mother plate” from which MIC assay plates or “daughter plates” were made.
(§10) The daughter plates were loaded with 190 μL per well of the appropriate medium using the Multidrop 384. The daughter plates were created using the Biomek FX which transferred 2 μL of drug solution from each well of a mother plate to each corresponding well of the daughter plate in a single step. A standardized inoculum of each test organism was prepared per CLSI methods (1) to equal a 0.5 McFarland standard, followed by a dilution of 1:20 for aerobes and 1:10 for anaerobes. The plates were then inoculated with 10 μL of the diluted inoculum using the Biomek 2000 from low to high drug concentration, resulting in a final concentration of approximately 5×10^5 CFU/mL per well. An un-inoculated plate was incubated in parallel for each medium for the purpose of assessing solubility of the drug in the test media.
(§11) Inoculated plates were stacked 3 or 4 high, covered with a sterile lid on the top plate, placed into boxes with CO2 planchets (streptococci) or plastic bags (all other isolates). Plates were incubated at 35° C. for 16-24 hr in ambient air for aerobes or for 42-48 hr in the anaerobic environment of the Bactron II anaerobe chamber (Sheldon Manufacturing Co.; Cornelius, Oreg.). Following incubation, the microplates were removed from the incubator and viewed from the bottom using a plate viewer. The MIC values were read and recorded as the lowest concentration of drug that inhibited visible growth of the organism as per CLSI methods (1) and (2).

[7] = system: Staphylococcus aureus; assay: Broth microdilution MIC, 50 clinical isolates (28 MRSA); format: cell-based
Experimental: as §6, §7, §8, §9, §10, §11

SMILES: CCC[C@@H]1C[C@@H](C(=O)N[C@@H]([C@H]2O[C@H](SC)[C@H](O)[C@@H](O)[C@H]2O)[C@H](C)Cl)N(C)C1 [CLIN]
- MIC ([1]; S. agaloctiae ATCC 13813, selected on rifaximin 4X MIC, Colony A): 0.03 µg/mL (≈ 0.0706 µM)
- MIC ([1]; S. agaloctiae ATCC 13813, selected on rifaximin 4X MIC, Colony B): 0.03 µg/mL (≈ 0.0706 µM)
- MIC ([1]; S. agaloctiae ATCC 13813, selected on rifaximin 8X MIC, Colony A): 0.03 µg/mL (≈ 0.0706 µM)
- MIC ([1]; S. agaloctiae ATCC 13813, selected on rifaximin 8X MIC, Colony B): 0.03 µg/mL (≈ 0.0706 µM)
- MIC ([1]; S. agaloctiae ATCC 13813 Parent): 0.015 µg/mL (≈ 0.0353 µM)
- MIC ([1]; S. pneumoniae ATCC 49619, selected on rifaximin 4X MIC, Colony A): 0.03 µg/mL (≈ 0.0706 µM)
- MIC ([1]; S. pneumoniae ATCC 49619, selected on rifaximin 4X MIC, Colony B): 0.03 µg/mL (≈ 0.0706 µM)
- MIC ([1]; S. pneumoniae ATCC 49619, selected on rifaximin 8X MIC, Colony A): 0.03 µg/mL (≈ 0.0706 µM)
- MIC ([1]; S. pneumoniae ATCC 49619, selected on rifaximin 8X MIC, Colony B): 0.03 µg/mL (≈ 0.0706 µM)
- MIC ([1]; S. pneumoniae ATCC 49619 Parent): 0.06 µg/mL (≈ 0.141 µM)
- MIC ([1]; S. pyogenes ATCC 49399, selected on rifaximin 4X MIC, Colony A): 0.03 µg/mL (≈ 0.0706 µM)
- MIC ([1]; S. pyogenes ATCC 49399, selected on rifaximin 4X MIC, Colony B): 0.03 µg/mL (≈ 0.0706 µM)
- MIC ([1]; S. pyogenes ATCC 49399, selected on rifaximin 8X MIC, Colony A): 0.03 µg/mL (≈ 0.0706 µM)
- MIC ([1]; S. pyogenes ATCC 49399, selected on rifaximin 8X MIC, Colony B): 0.03 µg/mL (≈ 0.0706 µM)
- MIC ([1]; S. pyogenes ATCC 49399 Parent): 0.03 µg/mL (≈ 0.0706 µM)
- MIC ([2]; B. fragilis ATCC 25285, selected on rifaximin 4X MIC, Colony A): 0.5 µg/mL
- MIC ([2]; B. fragilis ATCC 25285, selected on rifaximin 4X MIC, Colony B): 0.5 µg/mL
- MIC ([2]; B. fragilis ATCC 25285, selected on rifaximin 8X MIC, Colony A): 0.5 µg/mL
- MIC ([2]; B. fragilis ATCC 25285, selected on rifaximin 8X MIC, Colony B): 0.5 µg/mL
- MIC ([2]; B. fragilis ATCC 25285 Parent): 0.25 µg/mL
- MIC ([2]; B. ovatus MMX 3503, selected on rifaximin 4X MIC, Colony A): 1 µg/mL
- MIC ([2]; B. ovatus MMX 3503, selected on rifaximin 4X MIC, Colony B): 1 µg/mL
- MIC ([2]; B. ovatus MMX 3503, selected on rifaximin 8X MIC, Colony A): 0.5 µg/mL
- MIC ([2]; B. ovatus MMX 3503, selected on rifaximin 8X MIC, Colony B): 1 µg/mL
- MIC ([2]; B. ovatus MMX 3503 Parent): 0.5 µg/mL
- MIC ([2]; B. vulgatus ATCC 8482, selected on ceftriaxone 4X MIC, Colony A): 0.25 µg/mL
- MIC ([2]; B. vulgatus ATCC 8482, selected on ceftriaxone 4X MIC, Colony B): 0.25 µg/mL
- MIC ([2]; B. vulgatus ATCC 8482, selected on rifaximin 4X MIC, Colony A): 0.25 µg/mL
- MIC ([2]; B. vulgatus ATCC 8482, selected on rifaximin 4X MIC, Colony B): 0.12 µg/mL
- MIC ([2]; B. vulgatus ATCC 8482, selected on rifaximin 8X MIC, Colony A): 0.12 µg/mL
- MIC ([2]; B. vulgatus ATCC 8482, selected on rifaximin 8X MIC, Colony B): 0.25 µg/mL
- MIC ([2]; B. vulgatus ATCC 8482 Parent (Table 50)): 0.25 µg/mL
- MIC ([2]; B. vulgatus ATCC 8482 Parent (Table 54)): 0.25 µg/mL
- MIC, CLSI QC range [3]: (0.03-0.12) μg/mL

SMILES: Cc1onc(-c2ccccc2)c1C(=O)N[C@@H]1C(=O)N2[C@@H]1SC(C)(C)[C@@H]2C(=O)O [oxacillin, Oxacillin]
- Cumulative percentage of isolates inhibited at MIC ([4]; MIC 2 μg/mL): 2.0%
- Number of test isolates at MIC ([4]; MIC 2 μg/mL): 1
- Cumulative percentage of isolates inhibited at MIC ([4]; MIC 8 μg/mL): 16.0%
- Number of test isolates at MIC ([4]; MIC 8 μg/mL): 7
- Cumulative percentage of isolates inhibited at MIC ([4]; MIC 16 μg/mL): 54.0%
- Number of test isolates at MIC ([4]; MIC 16 μg/mL): 19
- Cumulative percentage of isolates inhibited at MIC ([4]; MIC >16 μg/mL): 100.0%
- Number of test isolates at MIC ([4]; MIC >16 μg/mL): 23
- Cumulative percentage of isolates inhibited at MIC ([5]; MIC 0.5 μg/mL): 28.0%
- Number of test isolates at MIC ([5]; MIC 0.5 μg/mL): 10
- Cumulative percentage of isolates inhibited at MIC ([5]; MIC 1 μg/mL): 42.0%
- Number of test isolates at MIC ([5]; MIC 1 μg/mL): 7
- Cumulative percentage of isolates inhibited at MIC ([5]; MIC 2 μg/mL): 44.0%
- Number of test isolates at MIC ([5]; MIC 2 μg/mL): 1
- Cumulative percentage of isolates inhibited at MIC ([5]; MIC 4 μg/mL): 48.0%
- Number of test isolates at MIC ([5]; MIC 4 μg/mL): 2
- Cumulative percentage of isolates inhibited at MIC ([5]; MIC 8 μg/mL): 50.0%
- Number of test isolates at MIC ([5]; MIC 8 μg/mL): 1
- Cumulative percentage of isolates inhibited at MIC ([5]; MIC >16 μg/mL): 100.0%
- Number of test isolates at MIC ([5]; MIC >16 μg/mL): 25
- Cumulative percentage of isolates inhibited at MIC ([5]; MIC […]): 8.0%
- Number of test isolates at MIC ([5]; MIC […]): 4
- Mode [6]: >16 µg/mL
- MIC50 ([6]; Enterococcus faecalis, read-out: MIC50): 16 µg/mL (≈ 39.9 µM)
- MIC90 ([6]; Enterococcus faecalis, read-out: MIC90): > 16 µg/mL
- % R [7]: 56%
- % S [7]: 44%
- Mode [7]: >16 µg/mL
- MIC50 ([7]; Staphylococcus aureus, read-out: MIC50): 8 µg/mL (≈ 19.9 µM)
- MIC90 ([7]; Staphylococcus aureus, read-out: MIC90): > 16 µg/mL
